Read-outs that look alike come from different tables or passages of the source.
Key:
[1] = molecular target: T1, Recombinant human JAK2 kinase domain protein (Residues 812-1132) (Homo sapiens, UniProt O60674); test: JAK2 biochemical assay (microfluidic mobility shift, peptide phosphorylation); details: 25 μM ATP, 0.2 nM total JAK2; Ki calculated from Ki app (tight-binding, competitive); read-out: Biochem JAK2 Ki
T1 construct: human JAK2 kinase domain protein (Residues 812-1132); made in house; host or cells: insect cells
T1 sequence (O60674 812-1132): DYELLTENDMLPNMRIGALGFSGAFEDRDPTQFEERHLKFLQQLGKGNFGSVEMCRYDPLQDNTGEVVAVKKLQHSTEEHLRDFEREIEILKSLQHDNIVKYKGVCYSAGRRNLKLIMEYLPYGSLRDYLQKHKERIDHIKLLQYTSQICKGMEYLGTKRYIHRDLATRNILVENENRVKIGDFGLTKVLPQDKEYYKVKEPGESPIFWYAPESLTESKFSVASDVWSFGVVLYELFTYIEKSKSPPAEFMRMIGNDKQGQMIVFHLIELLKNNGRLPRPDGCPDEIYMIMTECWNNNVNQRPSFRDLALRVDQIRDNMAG
Experimental: (§1) The in vitro biochemical assays quantify JAK-catalyzed phosphorylation of a synthetic peptide, as detected using a LabChip® EZ Reader II microfluidic mobility shift instrument (PerkinElmer; Waltham, MA). The substrate peptide Y-1B has the sequence 5-FAM-VALVDGYFRLTT-NH2. Y-1B is fluorescently labeled on the N-terminus with 5-FAM (5-carboxyfluorescein) and contains a single tyrosine residue (Y) that can be phosphorylated by JAK activity. The substrate peptide stock is prepared in DMSO at 5 mM. Purified recombinant human JAK1 kinase domain protein (Residues 854-1154) was expressed in insect cells and procured from Proteros Biostructures GmbH (Martinsried, Germany). Recombinant human JAK2 kinase domain protein (Residues 812-1132) was expressed in insect cells and purified at Genentech, Inc. (South San Francisco, CA).
(§2) The kinase reaction mixtures contained 100 mM 4-(2-hydroxyethyl)-1-piperazineethanesulfonic acid (HEPES) buffer (pH 7.2), 10 mM magnesium chloride, 0.015% Brij® 35, 4 mM dithiothreitol, 1.5 μM Y-1B peptide substrate, 25 μM adenosine triphosphate (ATP), 1 nM total JAK1 or 0.2 nM total JAK2, and up to 1000 nM test compound in a final concentration of 2% (volume to volume [v/v]) DMSO. In each titration experiment, test compound was tested in duplicate at each of the twelve concentrations. Blank reactions contained ATP, peptide, and DMSO, but no JAK or test compound, whereas uninhibited control reactions contained ATP, peptide, JAK, and DMSO, but no test compound.
(§3) Peptide plus ATP mixture (24 μL) was added to 1 μL of test compound in DMSO (or DMSO alone). The reactions were initiated by adding 25 μL of JAK enzyme to the inhibitor/peptide/ATP mixture before thoroughly mixing the resultant solution. Reactions were incubated at room temperature (22° C.-23° C.) in a final volume of 50 μL per well in 384-well plates. After a 30-minute incubation, the reactions were stopped by adding 25 μL of 150 mM ethylenediaminetetraacetic acid in 100 mM HEPES buffer (pH 7.2) containing 0.015% Brij 35 to each well.
(§4) In each reaction, the residual Y-1B substrate and the phospho-peptide product generated were separated using the EZ Reader 1 instrument. Electrophoretic separation of molecules of product from molecules of substrate was achieved using downstream and upstream voltages of −500 and −2600 V, respectively, at an operating pressure of −1.3 psi. The 5-FAM group present on both the substrate and product peptides was excited at 488 nm, the fluorescence was detected at 530 nm, and the peak heights were reported.
(§5) The extent (or percent) of conversion of substrate to product was calculated from the corresponding peak heights in the electropherogram using HTS Well Analyzer software, Version 5.2 (PerkinElmer), and the following equation (Equation 1): % conversion=[P[…](S+P)]×100 Equation 1 where S and P represent the peak heights of the substrate and product, respectively. After any baseline signal from blank wells containing no JAK was subtracted from the signal of all test wells, the % conversion data were converted to fractional activity as shown in Equation 2, where νi and νo are the % conversion in the presence and absence of test compound, respectively. The % conversion observed in the uninhibited control reactions containing JAK and DMSO vehicle, but no test compound, was defined to have fractional activity=1 (with no inhibitor present, νi=νo), whereas blank wells with no JAK were defined as having fractional activity=0. Fractional activity was plotted against test compound concentration and the data were fitted using XLfit software (IDBS; Guildford, United Kingdom) to a tight-binding apparent inhibition constant (Ki^app) quadratic equation (see Equation 2) (Williams J W, Morrison J F. The kinetics of reversible tight-binding inhibition. Methods Enymol 1979; 63:437-67), which was used to calculate fractional activity and Ki^app […]

[2] = molecular target: T2, recombinant human JAK1 kinase domain protein (Residues 854-1154) (Homo sapiens, UniProt P23458); test: JAK1 biochemical assay (microfluidic mobility shift, peptide phosphorylation); details: 25 μM ATP, 1 nM total JAK1; Ki calculated from Ki app (tight-binding, competitive); read-out: Biochem JAK1 Ki
T2 construct: human JAK1 kinase domain protein (Residues 854-1154); purchased Proteros Biostructures GmbH (Martinsried, Germany); host or cells: insect cells
T2 sequence (P23458 854-1154): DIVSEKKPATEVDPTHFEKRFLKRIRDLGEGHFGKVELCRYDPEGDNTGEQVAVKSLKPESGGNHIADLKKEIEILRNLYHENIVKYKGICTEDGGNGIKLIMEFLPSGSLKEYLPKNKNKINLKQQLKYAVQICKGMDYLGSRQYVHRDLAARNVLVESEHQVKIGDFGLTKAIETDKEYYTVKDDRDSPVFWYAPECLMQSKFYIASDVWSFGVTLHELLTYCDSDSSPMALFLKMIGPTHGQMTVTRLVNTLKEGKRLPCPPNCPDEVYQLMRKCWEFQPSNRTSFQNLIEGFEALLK
Experimental: as §1, §2, §3, §4, §5

[3] = tested on: JAK1 (IL-13-stimulated STAT6 phosphorylation in BEAS-2B cells); test: P-STAT6 BEAS-2B+IL-13 cell assay; type: cell-based, human; details: 1 hour compound, IL-13 15 minutes, IC50 by four-parameter fit, read-out: Cellular JAK1 PSTAT6 BEAS2B + IL13
Experimental: In order to study the effect of JAK1 inhibitors in a cell line that is relevant to the cell biology of human asthma, an IL-13-stimulated STAT6 phosphorylation assay in the human lung bronchial epithelial BEAS-2B cell line was developed.
BEAS-2B cells (ATCC® CRL-9609™) were grown in Bronchial Epithelial Growth Medium (BEGM) (Lonza Catalog No. CC-3170; Walkersville, MD; or PromoCell Catalog No. C-21060; Heidelberg, Germany). Test compound stock solutions (0.5 mM in DMSO) were serially diluted 1:2 in DMSO to generate a 10-point concentration curve (at 500× test concentration), which was further diluted by a 50-fold dilution step in BEGM to generate a 10× concentration curve (in 2% DMSO). Cells were plated at 100,000 cells/well in 200 μL of BEGM in 96-well plates and incubated for 48 hours at 37° C. in a humidified incubator. Medium was aspirated from the cells and replaced with 70 μL of fresh BEGM. Diluted test compound (10 μL; or 2% DMSO in assay medium) was added to the cells, and the plates were incubated for 1 hour at 37° C. in a humidified incubator. Twenty μL of 250 ng/mL human recombinant IL-13 (Bio Techne Catalog No. 213-ILB) was then added to the cells and incubated for 15 minutes at 37° C. Medium was aspirated from the cells and 60 μL of ice-cold 1×cell lysis buffer (Cell Signaling Technologies; Catalog No. 9803S) containing 1 mM PMSF was added to the cells. Assay plates were incubated at −80° C. for at least 1 hour. P-STAT6 was measured by coating GAR plates (MSD; Catalog No. L45RA-1) with rabbit anti-human total STAT6 antibody (Cell Signaling Technologies; Catalog No. 9362S), incubating the cell lysates in the coated plates overnight at 4° C., and then detecting with mouse anti-phospho-STAT6 (Tyr641) Clone 16E12 antibody (Millipore; Catalog No. 05-590, custom labeled by MSD with SULFO-tag) using standard MSD plate processing, washing, and detection protocols. Plates were read on the MESO SECTOR S600.
Data analysis was performed by subtracting negative control values from all wells and determining percent of control using the positive control values; the IC50 was determined with a four-parameter logistic fit model as shown in Equation 4.

**Q.** Which results are given for CN(C)C1CCC(N2CC(n3nnc(Cn4cc(NC(=O)c5cnn6cccnc56)c(-c5cc(OC(F)F)ccc5OC(F)F)n4)n3)C2)C1 (single isomer, unassigned) [Example 74, N-[3-[2,5-bis(difluoromethoxy)phenyl]-1-[[2-[1-[3-(dimethylamino)cyclopentyl]azetidin-3-yl]tetrazol-5-yl]methyl]pyrazol-4-yl]pyrazolo[1,5-a]pyrimidine-3-carboxamide]?
**A.** Ki [1]: 0.47 nM; Ki [2]: 0.55 nM; IC50 [3]: 93 nM

**Q.** How did the Ki [1] turn out when CN1CC(Cn2nnc(Cn3cc(NC(=O)c4cnn5cccnc45)c(-c4cc(OC(F)F)ccc4OC(F)F)n3)n2)C1 [Example 32, N-[3-[2,5-bis(difluoromethoxy)phenyl]-1-[[2-[(1-methylazetidin-3-yl)methyl]tetrazol-5-yl]methyl]pyrazol-4-yl]pyrazolo[1,5-a]pyrimidine-3-carboxamide] was run?
**A.** The Ki was 0.62 nM.

**Q.** What about the Ki [2] of the same compound?
**A.** Its Ki is 0.72 nM.

**Q.** And the IC50 ([3]; Homo sapiens, BEAS-2B, 1 h)?
**A.** Its IC50 is 22 nM.

**Q.** CN1CCN(CCn2nnnc2Cn2cc(NC(=O)c3cnn4cccnc34)c(-c3cc(Cl)ccc3OC(F)F)n2)CC1 [Example 42, N-[3-[5-chloro-2-(difluoromethoxy)phenyl]-1-[[1-[2-(4-methylpiperazin-1-yl)ethyl]tetrazol-5-yl]methyl]pyrazol-4-yl]pyrazolo[1,5-a]pyrimidine-3-carboxamide] was tested. Which Ki [1] did it give?
**A.** The Ki was 0.22 nM.

**Q.** What about the Ki [2] of the same compound?
**A.** The Ki was 0.33 nM.

**Q.** What about the IC50 ([3]; Homo sapiens, BEAS-2B, 1 h) of the same compound?
**A.** The IC50 was 16 nM.

**Q.** How did the Ki [1] turn out when CN1CCC[C@H]1Cn1nnnc1Cn1cc(NC(=O)c2cnn3cccnc23)c(-c2cc(OC(F)F)ccc2OC(F)F)n1 (racemic) [Example 54, N-[3-[2,5-bis(difluoromethoxy)phenyl]-1-[[1-[[rac-(2S)-1-methylpyrrolidin-2-yl]methyl]tetrazol-5-yl]methyl]pyrazol-4-yl]pyrazolo[1,5-a]pyrimidine-3-carboxamide] was run?
**A.** The Ki was 0.45 nM.

**Q.** What about the Ki [2] of the same compound?
**A.** The Ki was 0.75 nM.

**Q.** What about the IC50 ([3]; Homo sapiens, BEAS-2B, 1 h) of the same compound?
**A.** The IC50 was 51 nM.

**Q.** What does the source list for CN(C)CCN(C)C1CC(n2nnc(Cn3cc(NC(=O)c4cnn5cccnc45)c(-c4cc(OC(F)F)ccc4OC(F)F)n3)n2)C1 (single isomer, unassigned) [Example 82, N-[3-[2,5-bis(difluoromethoxy)phenyl]-1-[[2-[3-[2-(dimethylamino)ethyl-methyl-amino]cyclobutyl]tetrazol-5-yl]methyl]pyrazol-4-yl]pyrazolo[1,5-a]pyrimidine-3-carboxamide; formic acid]?
**A.** Ki [1]: 0.47 nM; Ki [2]: 0.54 nM; IC50 ([3]; formic acid): 32 nM

**Q.** Which results are given for O=C(Nc1cn(Cc2nnnn2C2CCNCC2)nc1-c1cc(OC(F)F)ccc1OC(F)F)c1cnn2cccnc12 [Example 24, N-[3-[2,5-bis(difluoromethoxy)phenyl]-1-[[1-(4-piperidyl)tetrazol-5-yl]methyl]pyrazol-4-yl]pyrazolo[1,5-a]pyrimidine-3-carboxamide]?
**A.** Ki [1]: 0.91 nM; Ki [2]: 0.83 nM; IC50 ([3]; Homo sapiens, BEAS-2B, 1 h): 470 nM

**Q.** Which results are given for CN1CCN(CCn2nnc(Cn3cc(NC(=O)c4cnn5cccnc45)c(-c4cc(Cl)ccc4OC(F)F)n3)n2)CC1 [Example 39, N-[3-[5-chloro-2-(difluoromethoxy)phenyl]-1-[[2-[2-(4-methylpiperazin-1-yl)ethyl]tetrazol-5-yl]methyl]pyrazol-4-yl]pyrazolo[1,5-a]pyrimidine-3-carboxamide]?
**A.** Ki [1]: 0.69 nM; Ki [2]: 1.3 nM; IC50 ([3]; Homo sapiens, BEAS-2B, 1 h): 36 nM

**Q.** CN(C)CCN1CCC(n2nnc(Cn3cc(NC(=O)c4cnn5cccnc45)c(-c4cc(OC(F)F)ccc4OC(F)F)n3)n2)C1 (single isomer, unassigned) [Example 68, N-[3-[2,5-bis(difluoromethoxy)phenyl]-1-[[2-[1-[2-(dimethylamino)ethyl]pyrrolidin-3-yl]tetrazol-5-yl]methyl]pyrazol-4-yl]pyrazolo[1,5-a]pyrimidine-3-carboxamide] was tested. Which Ki [1] did it give?
**A.** The Ki was 0.43 nM.

**Q.** And the Ki [2]?
**A.** Its Ki is 0.46 nM.

**Q.** And the IC50 [3]?
**A.** Its IC50 is 41 nM.

— patent US12247032B2, “Substituted pyrazolo[1,5-a]pyrimidines as inhibitors of JAK kinases” (Genentech, Inc., priority 2019, dated 2025)
